Data from US20160081336A1, “MEDIUM WITH A PLANT NON-METABOLIZABLE SUGAR FOR IMPROVING SEED GERMINATION” (WEYERHAEUSER NR COMPANY, priority 2014, published 2016).

Key:
[1] = system: alkaline and acid invertases; conditions: cut potato tubers; cited from earlier work
[2] = system: embryos dissected from natural loblolly pine seed; assay: Germination of loblolly pine embryos in manufactured seed, sucrose/isomaltulose gametophyte media (Example 2); assay type: in vivo; conditions: relative to 20 sucrose
Source text: Normal (germination score): Fully extracted out of seed with no malformation (epicotyl optional for fully extracted). OR partial germinant with epicotyl out of cavity and all organs—No Malformations present. Root length of at least 3.0 mm.
Partial Normal (germination score): Not fully emerged, partial germinant with no epicotyl and no malformations. Root length of at least 3.0 mm.
Not normal (germination score): Malformed partial germinants, lacking organs, roots less than 3 mm, any upside down or twisted germinant, or germinated and died as evidenced by lid penetration but no germinant present.
Manufactured seeds were prepared with KE 64 agar nutritive medium, as shown below in Table 1, with sucrose (50 g/L), agar (18 g/L to 26 g/L), nutrient-loaded charcoal (60 g/L) and Pluronic F68 (10 g/L).
The germination rate may be measured and the normalcy of the germinants may also be assessed. A “normal germinant” or “normalcy” denotes the presence of all expected parts of a plant at time of evaluation. In the case of gymnosperms, normalcy is characterized by the radicle having a length greater than 3 mm and no visibly discernable malformations compared to the appearance of embryos germinated from natural seed. “Not normal” means tissue on at least one organ is swollen, and the root and cotyledons are dead. […]

[3] = system: embryos; assay: Lower sucrose concentrations study (15, 25, 35 and 50 g/l; FIG. 4-6); assay type: in vivo
Source text: Organ lengths were also a factor with relation to sucrose concentrations. It was hypothesized that lower sucrose concentrations would affect root lengths and indeed the lower sucrose treatments produced shorter root lengths as compared to the highest group 50 g/l sucrose (FIG. 4). […] After observing sufficient lid penetration, seed were transferred from boxes to sterile sand.

[4] = system: developing embryo; assay: Earlier sucrose level study in manufactured seed (FIG. 2, 3); assay type: in vivo
Source text: Higher water potential with relation to lower sucrose levels (solute concentration) was previously purported to increase flooding in gametophyte seed cavities. […] Because of the flooding problem, this study could have selected for those treatments that had the most rapid lid penetration, which would allow embryos to escape the flooded seed environment.

[5] = Study testing increased arginine in gametophyte medium; conditions: in vivo
Source text: Aside from the signaling evidence from the literature, the effect of isomaltulose is not thought to be simply from additional osmoticant because higher osmolality medium would drive the water potential gradient further in the direction of the gametophyte, not toward the embryo.

In the case of `O=C(CO)[C@@H](O)[C@H](O)[C@H](O)CO[C@H]1O[C@H](CO)[C@@H](O)[C@H](O)[C@H]1O` [isomaltulose, 6-O-α-d-glucopyranosyl-D-fructose], the “isomaltulose concentration at peak acid invertase activity” value [1] is given as 20 mM, the “isomaltulose concentration at peak alkaline invertase activity” value [1] is given as 50 mM and the lateral roots [2] is given as “significantly improved lateral root presence”.
In the case of `OC[C@H]1O[C@@](CO)(O[C@H]2O[C@H](CO)[C@@H](O)[C@H](O)[C@H]2O)[C@@H](O)[C@@H]1O` [sucrose], the root length ([3]; FIG. 4) is reported as “increased root length with relation to rising sucrose levels”, the normalcy ([3]; after germination in sand, FIG. 6) is reported as “normalcy increasing with higher sucrose concentrations” and the embryo activity ([3]; day 5, FIG. 5) is reported as “Lower concentrations of sucrose gave the highest yield of embryo activity”. The organ lengths ([4]; FIG. 2) was “increased with sucrose at 50 g/l and greater” and the normalcy ([4]; FIG. 3) was “decreased with increasing sucrose concentration”.
For `N=C(N)NCCC[C@H](N)C(=O)O` [arginine], the “performance with increased arginine” value [5] was “reduced performance at higher levels”.
